Values of other authors, collected in patent US20050014837A1, “Method for treating ocular hypertension and glaucoma” (priority 2001, published 2005).

Conditions: 0.01% solution; 5, 10 and 20 μL

O=C1OC2(c3ccc(O)cc3Oc3cc(O)ccc32)c2ccccc21 [fluorescein]
initial concentration in meniscus relative to the concentration of the administered fluorescein: 36-45%
